Assay [1] addresses T1, SARS-CoV-2 PLpro (nsp3 1564–1878) (Severe acute respiratory syndrome coronavirus 2, UniProt P0DTD1). The experiment in a line: biochemical. More on the design: FRET-quenched peptide (Pro3) cleavage by PLpro, 10 min pre-incubation, slope over 20 min, normalised to no-compound control. The note with it: low concentration screen, read-out: % of control remaining.
Assay [2] deals with T1, SARS-CoV-2 PLpro (nsp3 1564–1878). Description: biochemical. The note with it: high concentration screen, read-out: % of control remaining. Further details: FRET-quenched peptide (Pro3) cleavage by PLpro, 10 min pre-incubation, slope over 20 min, normalised to no-compound control.

Structures are written as SMILES. Where a name gives a salt, the structure may show the parent alone. Read-outs that look alike come from different tables or passages of the source.

As to `NCCS(=O)O` [Hypotaurine], the remaining activity at 1.25 µM was determined as 102% in assay [1] (Well no.=464) and 106% in assay [1] (Well no.=7779). The remaining activity at 3.75 µM came to 102% in assay [2] (Well no.=464) and 103% in assay [2] (Well no.=7779).

For the compound `O=c1[nH]cnc2nc[nH]c12` [Hypoxanthine], the remaining activity at 1.25 µM in assay [1] (Well no.=5246) came to 96.5%; in assay [1] (Well no.=7269), 91.9%. The results for the remaining activity at 3.75 µM in assay [2] (Well no.=5246) and in assay [2] (Well no.=7269) were 96.5% and 89.6%, respectively.

Turning to `COc1cc(/C=C(\C#N)C(=O)c2ccc(O)c(O)c2)cc(I)c1O` [I-OMe-Tyrphostin AG 538], the remaining activity at 1.25 µM in assay [1] (Well no.=1420) turned out to be 93%. For the same compound, the remaining activity at 3.75 µM in assay [2] (Well no.=1420) came to 92.9%.

With `CNC(=O)[C@H]1O[C@@H](n2cnc3c(NCc4cccc(I)c4)ncnc32)[C@H](O)[C@@H]1O` [IB-MECA], the remaining activity at 1.25 µM in assay [1] (Well no.=923) amounted to 94.3%. For the same compound, the remaining activity at 3.75 µM in assay [2] (Well no.=923) stood at 99.3%.

With `COc1cc(OC)c(C=C2C(=O)Nc3ccccc32)c(OC)c1` [IC261], the remaining activity at 1.25 µM in assay [1] (Well no.=2506) was 103%. The remaining activity at 3.75 µM in assay [2] (Well no.=2506) was found to be 103%.

Turning to `Cc1ccccc1-n1c(Cn2cnc3c(N)ncnc32)nc2cccc(C)c2c1=O` [IC87114], the remaining activity at 1.25 µM in assay [1] (Well no.=2945) was 98.3%. The remaining activity at 3.75 µM in assay [2] (Well no.=2945) is 97.6%.

For the compound `O=C(Nc1ccc(S(=O)(=O)Nc2nccs2)cc1)C(c1ccccc1)c1ccccc1` [ICA-121431], in assay [1] (Well no.=7878), the remaining activity at 1.25 µM was found to be 98.2%. The remaining activity at 3.75 µM in assay [2] (Well no.=7878) was determined as 99.6%.

Take `Cc1ccc(OC[C@H](O)[C@@H](C)NC(C)C)c2c1CCC2` [ICI 118,551 hydrochloride]: the remaining activity at 1.25 µM in assay [1] (Well no.=1113) is 100%. For the same compound, in assay [2] (Well no.=1113), the remaining activity at 3.75 µM was 102%.

Consider `CN(C(=O)Cc1ccc(Cl)c(Cl)c1)C(CN1CCCC1)c1cccc(OCC(=O)O)c1` (centres unmarked) [ICI 204,448 hydrochloride], for which the remaining activity at 1.25 µM in assay [1] (Well no.=1065) is 101%. In addition, in assay [2] (Well no.=1065), the remaining activity at 3.75 µM was determined as 104%.

`O=C(O)CC/C=C\C[C@H]1CO[C@@H](c2ccccc2Cl)O[C@H]1c1ccccc1O` [ICI 192605]: the remaining activity at 1.25 µM in assay [1] (Well no.=5873) is 98.7%. Moreover, the remaining activity at 3.75 µM in assay [2] (Well no.=5873) stood at 100%.

Regarding `Nc1nonc1C(=Nc1ccc(F)c(Cl)c1)NO` [IDO5L], the remaining activity at 1.25 µM in assay [1] (Well no.=8263) is 107%. In assay [2] (Well no.=8263), the remaining activity at 3.75 µM was 103%.

`Nc1nonc1C(=Nc1ccc(F)c(Br)c1)NO` [IDO-IN-1]: the remaining activity at 1.25 µM in assay [1] (Well no.=8359) turned out to be 99.2%. The remaining activity at 3.75 µM in assay [2] (Well no.=8359) was determined as 99.9%.

In the case of `Cc1ccc(NC(=O)Nc2cc(-c3ccccc3-c3nn[nH]n3)ccc2N(CC(C)C)CC(C)C)cc1` [IDO-IN-2], the remaining activity at 1.25 µM in assay [1] (Well no.=8123) amounted to 99.9%. The remaining activity at 3.75 µM in assay [2] (Well no.=8123) is 94.6%.

Turning to `NCCNc1nonc1C(=Nc1ccc(F)c(Br)c1)NO` [IDO-IN-3], the remaining activity at 1.25 µM in assay [1] (Well no.=8693) was 107%. In assay [2] (Well no.=8693), the remaining activity at 3.75 µM amounted to 101%.

With `Cc1ccc(NC(=O)Nc2cc([C@H]3C[C@H]3C(=O)O)ccc2N(CC(C)C)CC(C)C)cc1` [IDO-IN-4], in assay [1] (Well no.=8647), the remaining activity at 1.25 µM was 104%. In assay [2] (Well no.=8647), the remaining activity at 3.75 µM turned out to be 106%.

In the case of `CSCCNc1nonc1-c1noc(=O)n1-c1ccc(F)c(Br)c1` [IDO-IN-12], the remaining activity at 1.25 µM in assay [1] (Well no.=8177) stood at 105%. Further, the remaining activity at 3.75 µM in assay [2] (Well no.=8177) was 99.7%.

`NCCCCCNCC12CC3CC(CC(C3)C1)C2` [IEM 1754 dihydrobroMide]: the remaining activity at 1.25 µM in assay [1] (Well no.=5175) was 97.7%. Further, the remaining activity at 3.75 µM in assay [2] (Well no.=5175) was 99.2%.

On to `C[N+](C)(C)CCCCCNCC12CC3CC(CC(C3)C1)C2` [IEM-1460], for which, in assay [1] (Well no.=524), the remaining activity at 1.25 µM was determined as 105%. Moreover, the remaining activity at 3.75 µM in assay [2] (Well no.=524) is 105%.

Turning to `O=C(c1ccc(Nc2nccc(-c3cc4ccccc4s3)n2)cc1)N1CCC(N2CCCC2)CC1` [IKK 16 - N-(4-Pyrrolidin-1-yl-piperidin-1-yl)-[4-(4-benzo[b]thiophen-2-yl-pyrimidin-2-ylamino)phenyl]carboxamide hydrochloride], in assay [1] (Well no.=2542), the remaining activity at 1.25 µM came to 100%. The remaining activity at 3.75 µM in assay [2] (Well no.=2542) was determined as 103%.

As for `O=C(Nc1cc(Cl)cc2c1[nH]c1cnccc12)c1cccnc1` [IKK Inhibitor X], the remaining activity at 1.25 µM in assay [1] (Well no.=2445) is 97.8%. The remaining activity at 3.75 µM in assay [2] (Well no.=2445) was determined as 101%.

For `N#Cc1c(C2CCNCC2)cc(-c2c(O)cccc2OCC2CC2)nc1N` [IKK-2 Inhibitor VIII], in assay [1] (Well no.=2441), the remaining activity at 1.25 µM was 104%. For the same compound, the remaining activity at 3.75 µM in assay [2] (Well no.=2441) worked out at 108%.

With `NC(=O)Nc1sc(-c2ccccc2)cc1C(N)=O` [IKK-2 Inhibitor VI], the remaining activity at 1.25 µM in assay [1] (Well no.=2437) was 107%. Also, the remaining activity at 3.75 µM in assay [2] (Well no.=2437) came to 106%.

For `O=C(Nc1cc(C(F)(F)F)cc(C(F)(F)F)c1)c1cc(Cl)ccc1O` [IKK-2 Inhibitor V], in assay [1] (Well no.=2435), the remaining activity at 1.25 µM was determined as 99.8%. For the same compound, the remaining activity at 3.75 µM in assay [2] (Well no.=2435) is 102%.

Turning to `NC(=O)Nc1cc(-c2ccccc2)sc1C(N)=O` [IKK-2 Inhibitor XI], in assay [1] (Well no.=2838), the remaining activity at 1.25 µM turned out to be 99.2%. Besides, in assay [2] (Well no.=2838), the remaining activity at 3.75 µM is 103%.

For `Cc1[nH]c2ccccc2c1C1=C(NCCc2ccc(F)cc2)C(=O)N(C)C1=O` [IM-12], the remaining activity at 1.25 µM in assay [1] (Well no.=5776) stood at 99.9%. The remaining activity at 3.75 µM in assay [2] (Well no.=5776) worked out at 100%.

Consider `O=C(Nc1cc(C(F)(F)F)cc(C(F)(F)F)c1)c1cc(Cl)ccc1O` [IMD 0354 - N-[3,5-Bis(trifluoromethyl)phenyl]-5-chloro-2-hydroxybenzamide], for which the remaining activity at 1.25 µM in assay [1] (Well no.=2586) is 86.3%. Besides, the remaining activity at 3.75 µM in assay [2] (Well no.=2586) came to 82.3%.

In the case of `Fc1ccc(CN(C2=NCCN2)c2c(Cl)cccc2Cl)cc1` [IMID-4F hydrochloride], the remaining activity at 1.25 µM in assay [1] (Well no.=718) amounted to 96.3%. Besides, the remaining activity at 3.75 µM in assay [2] (Well no.=718) stood at 96.8%.

Take `COc1ccc(/C=C2\COc3ccc(C)cc3C2=O)cc1O` [IMS2186]: the remaining activity at 1.25 µM in assay [1] (Well no.=5394) turned out to be 97.1%. Further, the remaining activity at 3.75 µM in assay [2] (Well no.=5394) worked out at 97.5%.

For the compound `CCO[C@H]1CN([C@H]2CC[C@@](O)(c3ccc4c(c3)OCO4)CC2)C[C@@H]1NC(=O)CNC(=O)c1cccc(C(F)(F)F)c1` [INCB3344], the remaining activity at 1.25 µM in assay [1] (Well no.=8605) stood at 108%. Besides, the remaining activity at 3.75 µM in assay [2] (Well no.=8605) was 102%.

In the case of `CNC(=O)c1ccc(-c2cnc3ncc(Cc4ccc5ncccc5c4)n3n2)cc1F` [INCB28060], the remaining activity at 1.25 µM in assay [1] (Well no.=5119) came to 102%. Besides, the remaining activity at 3.75 µM in assay [2] (Well no.=5119) turned out to be 103%.

On to `COc1ccc([C@]2(O)CC[C@@H](N3CC[C@@H](NC(=O)CNC(=O)c4cccc(C(F)(F)F)c4)C3)CC2)cn1` [INCB 3284], for which the remaining activity at 1.25 µM in assay [1] (Well no.=8271) came to 102%. In addition, the remaining activity at 3.75 µM in assay [2] (Well no.=8271) came out at 99.4%.

Consider `CC(C)n1nc(-c2ccc3oc(N)nc3c2)c2c(N)ncnc21` [INK 128 (MLN0128)], for which the remaining activity at 1.25 µM in assay [1] (Well no.=5133) was determined as 98.6%. Also, in assay [2] (Well no.=5133), the remaining activity at 3.75 µM was 104%.

The record behind these values is article PMC8286840, “Identifying SARS-CoV-2 antiviral compounds by screening for small molecule inhibitors of Nsp3 papain-like protease” (Biochemical Journal, 2021).
